In paper PMC3382171 (PLoS ONE, 2012):

Tests used:
Test in all cases: biochemical
Conditions in all cases: read-out: Upstate KSS % inhibition at 1uM
[1] = target: MELK (Homo sapiens, UniProt Q14680)
Protocol: (§1) In these selectivity assays the concentration of ATP was set to the Km value of ATP for each kinase tested to allow for a relative potency comparison between the various kinases. The compounds were tested at 1 µM final concentration. […] (A) Kinase selectivity screen (KSS) performed at Upstate Biotechnology. […] (B) KSS performed at University of Dundee (Division of Signal Transduction Therapy). […] (PDF) Click here for additional data file.

[2] = target: T1, PI3Kg (Homo sapiens, UniProt P48736)
T1 construct: gene PIK3CG
Protocol: as §1

[3] = target: Lyn (Homo sapiens, UniProt P07948)
Protocol: as §1

[4] = target: T2, RSK2 (Homo sapiens, UniProt P51812)
T2 construct: gene RPS6KA3
Protocol: as §1

[5] = target: T3, Fms (Homo sapiens, UniProt P07333)
T3 construct: gene CSF1R
Protocol: as §1

[6] = target: T4, PKCtheta (Homo sapiens, UniProt Q04759)
T4 construct: gene PRKCQ
Protocol: as §1

[7] = target: T5, c-RAF (Homo sapiens, UniProt P04049)
T5 construct: gene RAF1
Protocol: as §1

[8] = target: T6, LKB1 (Homo sapiens, UniProt Q15831)
T6 construct: gene STK11
Protocol: as §1

[9] = target: CDK7/cyclinH (Homo sapiens, UniProt P50613)
Protocol: as §1

[10] = target: BMX (Homo sapiens, UniProt P51813)
Chain of BMX (P51813 whole entry): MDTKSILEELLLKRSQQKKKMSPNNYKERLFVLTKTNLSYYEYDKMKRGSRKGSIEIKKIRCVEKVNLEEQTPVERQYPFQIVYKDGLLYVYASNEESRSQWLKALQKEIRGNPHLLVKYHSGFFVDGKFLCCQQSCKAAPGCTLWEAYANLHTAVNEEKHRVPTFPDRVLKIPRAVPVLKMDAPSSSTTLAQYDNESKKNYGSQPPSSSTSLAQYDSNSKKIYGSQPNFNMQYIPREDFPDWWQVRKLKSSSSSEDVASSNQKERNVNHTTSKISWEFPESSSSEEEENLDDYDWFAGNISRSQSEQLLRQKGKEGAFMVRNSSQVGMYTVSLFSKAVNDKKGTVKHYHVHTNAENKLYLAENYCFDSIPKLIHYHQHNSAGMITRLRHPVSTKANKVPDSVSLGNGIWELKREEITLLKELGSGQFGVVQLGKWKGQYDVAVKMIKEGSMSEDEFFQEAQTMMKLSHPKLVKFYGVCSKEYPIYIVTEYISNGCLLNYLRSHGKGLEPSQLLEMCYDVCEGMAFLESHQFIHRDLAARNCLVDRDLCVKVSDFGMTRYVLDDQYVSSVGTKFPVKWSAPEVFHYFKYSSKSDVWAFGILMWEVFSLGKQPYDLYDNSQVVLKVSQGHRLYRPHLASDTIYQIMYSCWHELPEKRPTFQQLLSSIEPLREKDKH
Protocol: as §1

[11] = target: IRAK4 (Homo sapiens, UniProt Q9NWZ3)
Protocol: as §1

[12] = target: RET (Homo sapiens, UniProt P07949)
Protocol: as §1

[13] = target: T7, MSK1 (Homo sapiens, UniProt O75582)
T7 construct: gene RPS6KA5
Protocol: as §1

[14] = target: FYN (Homo sapiens, UniProt P06241)
Protocol: as §1

[15] = target: EPHB2 (Homo sapiens, UniProt P29323)
Chain of EPHB2 (P29323 whole entry): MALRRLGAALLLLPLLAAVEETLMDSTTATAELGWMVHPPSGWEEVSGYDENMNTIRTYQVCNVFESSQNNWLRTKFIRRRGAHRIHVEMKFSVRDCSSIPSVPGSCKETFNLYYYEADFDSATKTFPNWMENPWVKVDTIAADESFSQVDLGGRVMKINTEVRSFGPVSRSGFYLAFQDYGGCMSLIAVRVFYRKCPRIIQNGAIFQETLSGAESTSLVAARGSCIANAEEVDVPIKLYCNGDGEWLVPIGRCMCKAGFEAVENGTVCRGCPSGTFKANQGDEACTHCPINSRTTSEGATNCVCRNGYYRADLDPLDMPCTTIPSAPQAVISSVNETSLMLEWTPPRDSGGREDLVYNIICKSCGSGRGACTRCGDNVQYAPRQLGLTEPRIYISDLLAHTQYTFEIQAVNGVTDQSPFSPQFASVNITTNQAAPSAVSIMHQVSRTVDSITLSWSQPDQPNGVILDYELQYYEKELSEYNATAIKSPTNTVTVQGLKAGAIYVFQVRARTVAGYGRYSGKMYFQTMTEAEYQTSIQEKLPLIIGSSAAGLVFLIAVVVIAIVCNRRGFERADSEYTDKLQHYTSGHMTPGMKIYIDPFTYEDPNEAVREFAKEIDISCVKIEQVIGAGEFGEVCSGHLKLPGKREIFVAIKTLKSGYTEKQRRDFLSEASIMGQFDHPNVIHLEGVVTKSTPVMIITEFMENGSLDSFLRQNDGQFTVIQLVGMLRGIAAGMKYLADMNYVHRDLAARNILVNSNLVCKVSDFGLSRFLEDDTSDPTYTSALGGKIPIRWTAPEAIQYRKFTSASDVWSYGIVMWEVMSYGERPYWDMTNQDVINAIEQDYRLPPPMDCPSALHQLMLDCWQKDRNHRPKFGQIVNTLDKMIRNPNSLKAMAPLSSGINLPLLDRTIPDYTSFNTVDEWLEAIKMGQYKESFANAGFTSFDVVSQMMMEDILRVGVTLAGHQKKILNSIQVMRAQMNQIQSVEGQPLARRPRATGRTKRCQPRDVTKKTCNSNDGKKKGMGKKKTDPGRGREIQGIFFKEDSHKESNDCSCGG
Protocol: as §1

[16] = target: T8, PDGFRbeta (Homo sapiens, UniProt P09619)
T8 construct: gene PDGFRB
T8 sequence (P09619 whole entry): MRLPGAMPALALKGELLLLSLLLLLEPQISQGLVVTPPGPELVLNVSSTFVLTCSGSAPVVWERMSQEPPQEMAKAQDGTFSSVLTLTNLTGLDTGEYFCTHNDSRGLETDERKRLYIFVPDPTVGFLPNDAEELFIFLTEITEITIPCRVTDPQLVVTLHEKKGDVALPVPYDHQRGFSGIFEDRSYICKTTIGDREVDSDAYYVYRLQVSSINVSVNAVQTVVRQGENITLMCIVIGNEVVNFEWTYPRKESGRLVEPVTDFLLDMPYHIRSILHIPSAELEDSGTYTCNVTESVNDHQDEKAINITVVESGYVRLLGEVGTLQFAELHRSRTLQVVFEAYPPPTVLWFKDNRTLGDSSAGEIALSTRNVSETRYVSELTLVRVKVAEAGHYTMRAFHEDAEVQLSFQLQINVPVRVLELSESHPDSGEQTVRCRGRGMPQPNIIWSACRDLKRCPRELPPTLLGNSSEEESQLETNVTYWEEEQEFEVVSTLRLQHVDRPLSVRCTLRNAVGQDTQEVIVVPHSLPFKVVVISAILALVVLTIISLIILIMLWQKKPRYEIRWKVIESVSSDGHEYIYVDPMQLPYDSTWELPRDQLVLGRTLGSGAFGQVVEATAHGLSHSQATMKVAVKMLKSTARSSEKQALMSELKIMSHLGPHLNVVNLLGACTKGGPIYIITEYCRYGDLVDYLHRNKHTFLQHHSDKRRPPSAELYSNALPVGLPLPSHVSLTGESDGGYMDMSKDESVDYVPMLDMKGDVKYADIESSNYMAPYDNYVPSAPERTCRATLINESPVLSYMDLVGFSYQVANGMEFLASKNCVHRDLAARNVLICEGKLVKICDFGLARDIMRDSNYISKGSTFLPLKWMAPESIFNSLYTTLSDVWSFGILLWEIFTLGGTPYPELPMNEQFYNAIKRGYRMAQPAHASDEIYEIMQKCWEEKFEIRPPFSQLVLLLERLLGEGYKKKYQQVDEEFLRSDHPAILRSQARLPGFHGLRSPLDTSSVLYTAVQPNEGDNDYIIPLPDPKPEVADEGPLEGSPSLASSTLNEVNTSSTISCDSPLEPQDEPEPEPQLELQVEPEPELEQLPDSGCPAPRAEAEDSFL
Protocol: as §1

[17] = target: T9, rat CK1delta (Rattus norvegicus, UniProt Q06486)
T9 construct: gene Csnk1d
T9 sequence (Q06486 whole entry): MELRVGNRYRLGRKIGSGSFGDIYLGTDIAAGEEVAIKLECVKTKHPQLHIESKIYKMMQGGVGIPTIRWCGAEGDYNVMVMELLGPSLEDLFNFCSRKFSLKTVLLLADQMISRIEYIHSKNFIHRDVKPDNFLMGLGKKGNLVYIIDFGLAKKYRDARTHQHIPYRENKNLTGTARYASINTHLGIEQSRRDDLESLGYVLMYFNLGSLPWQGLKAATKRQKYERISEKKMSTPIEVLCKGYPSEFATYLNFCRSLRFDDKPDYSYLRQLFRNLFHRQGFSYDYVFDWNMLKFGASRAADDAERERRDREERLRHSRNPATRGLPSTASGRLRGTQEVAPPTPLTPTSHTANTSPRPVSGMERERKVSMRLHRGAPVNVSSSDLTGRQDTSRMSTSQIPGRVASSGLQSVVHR
Protocol: as §1

[18] = target: T10, MNK2 (Homo sapiens, UniProt Q9HBH9)
T10 construct: gene MKNK2
T10 sequence (Q9HBH9 whole entry): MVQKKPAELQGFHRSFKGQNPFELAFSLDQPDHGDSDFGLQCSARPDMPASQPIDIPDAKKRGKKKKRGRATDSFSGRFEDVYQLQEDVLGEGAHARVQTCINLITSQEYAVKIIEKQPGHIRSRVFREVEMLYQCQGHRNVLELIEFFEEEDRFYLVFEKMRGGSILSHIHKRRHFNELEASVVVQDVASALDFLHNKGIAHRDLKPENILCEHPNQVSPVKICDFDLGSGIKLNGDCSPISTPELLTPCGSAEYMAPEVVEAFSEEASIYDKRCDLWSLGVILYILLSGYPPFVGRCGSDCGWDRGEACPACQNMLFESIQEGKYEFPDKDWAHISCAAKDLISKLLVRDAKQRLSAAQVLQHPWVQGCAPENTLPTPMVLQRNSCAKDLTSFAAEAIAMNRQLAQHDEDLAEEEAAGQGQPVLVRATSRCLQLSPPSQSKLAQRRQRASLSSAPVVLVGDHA
Protocol: as §1

[19] = target: T11, ROCK-11 (Homo sapiens, UniProt O75116)
T11 construct: gene ROCK2
T11 sequence (O75116 whole entry): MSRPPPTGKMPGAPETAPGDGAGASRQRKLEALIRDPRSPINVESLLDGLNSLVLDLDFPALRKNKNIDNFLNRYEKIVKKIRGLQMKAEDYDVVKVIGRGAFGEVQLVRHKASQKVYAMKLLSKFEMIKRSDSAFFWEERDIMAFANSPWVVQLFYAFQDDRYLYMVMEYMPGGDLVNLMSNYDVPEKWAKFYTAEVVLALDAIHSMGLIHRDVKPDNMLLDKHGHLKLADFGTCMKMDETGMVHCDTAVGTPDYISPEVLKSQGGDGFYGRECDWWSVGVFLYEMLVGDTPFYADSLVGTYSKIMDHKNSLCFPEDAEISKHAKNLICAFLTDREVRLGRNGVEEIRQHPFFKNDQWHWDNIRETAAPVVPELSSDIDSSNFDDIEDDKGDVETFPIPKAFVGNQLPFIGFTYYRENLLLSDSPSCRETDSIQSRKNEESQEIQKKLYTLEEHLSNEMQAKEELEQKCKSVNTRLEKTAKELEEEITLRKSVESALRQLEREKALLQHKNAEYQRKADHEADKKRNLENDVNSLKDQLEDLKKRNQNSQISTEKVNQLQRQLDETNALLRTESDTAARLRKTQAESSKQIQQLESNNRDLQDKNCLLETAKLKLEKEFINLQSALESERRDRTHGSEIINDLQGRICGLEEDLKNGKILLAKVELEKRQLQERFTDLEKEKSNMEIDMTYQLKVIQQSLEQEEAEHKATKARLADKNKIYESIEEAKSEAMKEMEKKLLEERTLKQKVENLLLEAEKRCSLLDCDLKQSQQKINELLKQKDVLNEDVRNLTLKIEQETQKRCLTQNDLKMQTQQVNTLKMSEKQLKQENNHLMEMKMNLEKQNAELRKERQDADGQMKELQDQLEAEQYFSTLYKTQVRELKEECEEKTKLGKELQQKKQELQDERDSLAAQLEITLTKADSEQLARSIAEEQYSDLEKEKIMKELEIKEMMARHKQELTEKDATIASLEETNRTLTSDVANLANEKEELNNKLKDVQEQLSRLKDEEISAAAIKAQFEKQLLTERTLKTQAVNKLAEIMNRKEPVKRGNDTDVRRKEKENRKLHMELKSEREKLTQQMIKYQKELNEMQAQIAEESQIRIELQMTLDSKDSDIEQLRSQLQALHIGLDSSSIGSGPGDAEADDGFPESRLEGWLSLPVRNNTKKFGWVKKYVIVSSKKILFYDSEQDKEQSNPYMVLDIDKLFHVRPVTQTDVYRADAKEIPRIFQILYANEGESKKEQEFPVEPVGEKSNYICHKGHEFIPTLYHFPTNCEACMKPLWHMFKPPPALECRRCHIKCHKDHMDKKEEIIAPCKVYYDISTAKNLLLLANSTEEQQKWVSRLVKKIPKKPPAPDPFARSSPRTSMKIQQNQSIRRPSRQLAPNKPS
Protocol: as §1

[20] = target: T12, GSK3alpha (Homo sapiens, UniProt P49840)
T12 construct: gene GSK3A
Protocol: as §1

[21] = target: T13, MLCK (Homo sapiens, UniProt Q15746)
T13 construct: gene MYLK
Protocol: as §1

[22] = target: T14, PRK2 (Homo sapiens, UniProt Q16513)
T14 construct: gene PKN2
Protocol: as §1

[23] = target: EPHB4 (Homo sapiens, UniProt P54760)
Protocol: as §1

[24] = target: GRK3 (Homo sapiens, UniProt P35626)
Protocol: as §1

[25] = target: T15, SAPK4 (Homo sapiens, UniProt O15264)
T15 construct: gene MAPK13
Protocol: as §1

[26] = target: T16, SAPK3 (Homo sapiens, UniProt P53778)
T16 construct: gene MAPK12
Protocol: as §1

[27] = target: JAK2 (Homo sapiens, UniProt O60674)
Protocol: as §1

[28] = target: FGR (Homo sapiens, UniProt P09769)
Protocol: as §1

[29] = target: T17, Aurora-A (Homo sapiens, UniProt O14965)
T17 construct: gene AURKA
Protocol: as §1

[30] = target: T18, MKK7beta (Homo sapiens, UniProt O14733)
T18 construct: gene MAP2K7; isoform beta
Protocol: as §1

[31] = target: CSK (Homo sapiens, UniProt P41240)
Protocol: as §1

[32] = target: T19, PhKgamma (Homo sapiens, UniProt Q16816)
T19 construct: gene PHKG1
Protocol: as §1

[33] = target: PAK2 (Homo sapiens, UniProt Q13177)
Protocol: as §1

[34] = target: EGFR (Homo sapiens, UniProt P00533)
Protocol: as §1

OCCn1cc(-c2cnc3nnn(Cc4ccc5ncccc5c4)c3n2)cn1 [METi, PF-04217903]
inhibition at 1 µM [1]: 2%
inhibition at 1 µM [2]: 1%
inhibition at 1 µM [3]: 2%
inhibition at 1 µM [4]: -22%
inhibition at 1 µM [5]: -12%
inhibition at 1 µM [6]: -10%
inhibition at 1 µM [7]: -16%
inhibition at 1 µM [8]: -10%
inhibition at 1 µM [9]: -14%
inhibition at 1 µM [10]: -10%
inhibition at 1 µM [11]: 11%
inhibition at 1 µM [12]: -7%
inhibition at 1 µM [13]: -5%
inhibition at 1 µM [14]: -20%
inhibition at 1 µM [15]: 53%
inhibition at 1 µM [16]: -27%
inhibition at 1 µM [17]: -4%
inhibition at 1 µM [18]: 0%
inhibition at 1 µM [19]: 0%
inhibition at 1 µM [20]: -7%
inhibition at 1 µM [21]: -32%
inhibition at 1 µM [22]: -11%
inhibition at 1 µM [23]: -23%
inhibition at 1 µM [24]: -1%
inhibition at 1 µM [25]: -18%
inhibition at 1 µM [26]: 10%
inhibition at 1 µM [27]: -6%
inhibition at 1 µM [28]: 0%
inhibition at 1 µM [29]: -7%
inhibition at 1 µM [30]: -2%
inhibition at 1 µM [31]: -23%
inhibition at 1 µM [32]: -3%
inhibition at 1 µM [33]: -9%
inhibition at 1 µM [34]: 0%
